In patent EP0393786B1, “New retro-inverse, one- or more bond bearing analogues of thymopentin, a method for synthesizing the same and their employment for the preparation of pharmaceutical” (SCLAVO S.p.A., priority 1989, dated 1990):

Tests used:
[1] = Stability to enzymic hydrolysis in heparinized human plasma (half-life); conditions: for half-life, times as much as that of thymopentin: relative to thymopentin
Method: The incubations were carried out at 37°C, and the drawings of the plasmatic mixtures, each one of 100 µl, were stopped at the various times by addition of trifluoroacetic acid in the ratio of 10%, with successive centrifugation at 10,000 x g, for five minutes. A portion of the supernatant is subjected to chromatography under conditions suitable to put into evidence the change in concentration of the peptide tested at the various time.

[2] = system: lymphocytes which secrete antibodies (PFC); test: Hemolysis plate test (PFC) according to Jerne and Nordin, in vivo immunostimulating activity; design: species or system inbred C3H/HeNCrlBr male mice; conditions: 100 ng of peptide p.o. two hours after SRBC i.v.; spleen lymphocytes after four days; IgM PFC
Method: In particular, the so-called "hemolysis plate test" has been employed (PFC) performed according to the procedure disclosed by Jerne and Nordin.
Said test is carried out by administering through intravenous route to inbred C3H/HeNCrlBr male mice (Calco-Italia) aged 10-12 weeks and of body weight about 25 g, a pyrogen-free saline solution (0.2 ml) containing 1-2 x 10⁸ blood red cells of ram (SRBC). After two hours, groups of three mice each are treated p.o. (intragastric intubation) with 0.2 ml of saline solution (control) or with 0.2 ml of saline solution containing 100 ng of the peptide under test. After four days, the mice are sacrificed and the spleens are drawn and mechanically disrupted to separate the lymphocytes. The lymphocytes so isolated are washed with minimal soil containing Earle salts (MEM) (3 x 15 ml) and then resuspended into the same soil (1 ml) at a final concentration of 150,000 cells. Each cell suspension (0.1 ml) is then diluted 1/100 with MEM soil, and 100 µl of each dilution is added in double to wells of microplates containing 25 µl of MEM soil, 25 µl of a 10 % solution of SRBC antigens and 25 µl of guinea-pig complement at a final dilution of 1/64. The whole suspension is immediately transferred by capillarity from each well onto overlapped glass holder-slides. Such slides, with their edges sealed by means of paraffin, are then put for incubation into a thermostatic chamber at 37°C for one hour.
At the end of such time, the direct hemolysis plates are counted by means of a light-contrast viewer, such plates pointing out the number of lymphocytes which secrete antibodies (PFC). The antibodies so put into evidence are of the class of the IgM's, which are proper of the primary antibody response.

| Molecule | half-life ([1]; human) [min] | half-life, times as much as that of thymopentin [1] | Plate formation % control [2] [% control] | half-life ([1]; test parallel to thymopentin) [min] |
| --- | --- | --- | --- | --- |
| CC(C)[C@@H](NC(=O)C(Cc1ccc(O)cc1)C(=O)O)NC(=O)[C@H](CC(=O)O)NC(=O)[C@H](CCCCN)NC(=O)[C@@H](N)CCCNC(=N)N (stereo partly drawn) [Example 3, [gVal⁴,(R,S)mTyr⁵]TP5] | 2.5 | about 2 times | 190 |  |
| CC(C)[C@H](NC(=O)[C@H](CC(=O)O)NC(=O)C(CCCCN)C(=O)NC(N)CCCNC(=N)N)C(=O)N[C@@H](Cc1ccc(O)cc1)C(=O)O (some centres unmarked) [reference compound] | 22 |  |  |  |
| CC(C)[C@@H](NC(=O)C(Cc1ccc(O)cc1)C(=O)O)NC(=O)[C@H](CC(=O)O)NC(=O)C(CCCCN)C(=O)N[C@@H](N)CCCNC(=N)N (stereo partly drawn) [Example 1, CH₃COOH.H-g-Arg-(R,S)mLys-Asp-gVal-(R,S)mTyr-OH] | > 360 |  | 196 | > 360 |
| H-Arg-Lys-Asp-Val-Tyr-OH [TP5, reference compound] |  |  | 137 |  |
| CC(C)C(C(=O)N[C@H](CC(=O)O)NC(=O)[C@H](CCCCN)NC(=O)[C@@H](N)CCCNC(=N)N)C(=O)N[C@@H](Cc1ccc(O)cc1)C(=O)O (stereo partly drawn) [Example 2, CH₃COOH.H-Arg-Lys-gAsp-(R,S)mVal-Tyr-OH] | 10 | about 7 times | 132 |  |
